Our source for the IC50 values is US11660303B2, “2-phenylimidazo[4,5-b]pyridin-7-amine derivates useful as inhibitors of mammalian tyrosine kinase ROR1 activity” (KANCERA AB, priority 2016, dated 2023).

In one test the test system is PBMC from CLL patients. Description: CellTiter-Blue Cell Viability Assay, PBMC from CLL patients. The test is classed as cell-based. To be noted: Homo sapiens, cell toxicity, culture 24, 48 and 72 h (time of the values not stated). Here is the method:
(§1) The CellTiter-Blue® Cell Viability Assay provides a homogeneous, fluorometric method for estimating the number of viable cells present in multi-well plates. The assay uses the indicator dye resazurin to measure the metabolic capacity of cells. Viable cells retain the ability to reduce resazurin into resorufin, which is highly fluorescent.
(§2) Stock solutions (10 or 100 mM in DMSO) of compounds were serially diluted 1:2 in 11 concentrations and 25 nL/well (100 mM stock) or 50 nL/well (10 mM stock) were acoustically dispensed in assay plates with an EDC acoustic dispenser. Final starting concentration in the assay was 20 μM (0.2% DMSO) or 100 μM (0.1% DMSO) for test compounds.
(§3) Peripheral blood mononuclear cells (PBMC) from CLL patients or healthy volunteers were seeded in assay plates (384-well black/clear, Greiner #781091) pre-dispensed with compounds, 25 μL/well, and cultured for 24, 48 and 72 h. The cell concentration was 50 000 cells/well for PBMC from CLL patients or healthy volunteers. After 24, 48 and 72 h culture, Celltiter Blue reagent was added (5 μL/well) and the plates were incubated for 2 h. The plates were read in an Envision fluorescence reader (PerkinElmer) with Ex544 nm/Em590 nm. Results were calculated as % cytotoxicity compared to background (cells treated with 0.2% DMSO).
(§4) Thus, IC50 values for cell toxicity in PBMC from CLL patients as well as healthy volunteers for some compounds of the invention are shown in Table 3 as measured by the CellTiter-Blue® Cell Viability Assay.
In general terms: Alamar Blue is a resazurin reagent that responds to reducing activity.

Test [1] concerns PBMC from healthy volunteers. The test is described as follows: CellTiter-Blue Cell Viability Assay, PBMC from healthy volunteers. The test is classed as cell-based. To be noted: Homo sapiens, cell toxicity, culture 24, 48 and 72 h (time of the values not stated). How it is done:
as §1, §2, §3, §4

As a reminder, the IC50 is the concentration needed to halve the response being measured. A lower IC50 goes with greater potency in that assay. For the molecule `CC(C)N1CCC(Nc2c(Br)cnc3[nH]c(-c4ccc(N5CCN(Cc6ccncc6)CC5)cc4)nc23)CC1` [Example 151, 6-Bromo-N-[1-(1-methylethyl)piperidin-4-yl]-2-{4-[4-(pyridin-4-ylmethyl)piperazin-1-yl]phenyl}-3H-imidazo[4,5-b]pyridin-7-amine], the IC50 with PBMC from CLL patients was 390 nM; in test [1], 13700 nM.
Consider `COCCC(=O)N1CCN(c2ccc(-c3nc4c(NC5CCN(C)CC5)c(Cl)cnc4[nH]3)cc2)CC1` [Example 276, 6-Chloro-2-{4-[4-(3-methoxypropanoyl)piperazin-1-yl]phenyl}-N-(1-methylpiperidin-4-yl)-3H-imidazo[4,5-b]pyridin-7-amine], for which the IC50 is 50 nM with PBMC from CLL patients and greater than 20000 nM in test [1].
Regarding `COCCN1CCCN(c2ccc(-c3nc4c(NC5CCN(C(C)C)CC5)c(Cl)cnc4[nH]3)cc2)CC1` [Example 63, 6-Chloro-2-{4-[4-(2-methoxyethyl)-1,4-diazepan-1-yl]phenyl}-N-[1-(1-methylethyl)piperidin-4-yl]-3H-imidazo[4,5-b]pyridin-7-amine], the IC50 is 960 nM in the test with PBMC from CLL patients and greater than 20000 nM in test [1].
Take `COCCN1CCN(c2ccc(-c3nc4c(NC5CCN(C)CC5)c(Cl)cnc4[nH]3)cc2OC)CC1` [Example 381, 6-Chloro-2-{3-methoxy-4-[4-(2-methoxyethyl)piperazin-1-yl]phenyl}-N-(1-methylpiperidin-4-yl)-3H-imidazo[4,5-b]pyridin-7-amine]: the values for the IC50 (with PBMC from CLL patients; in test [1]) were 400 nM and greater than 20000 nM, respectively.
Consider `COCCN1CCN(c2ccc(-c3nc4c(NC5CCN(C)CC5)c(Cl)cnc4[nH]3)cc2F)CC1` [Example 372, 6-Chloro-2-{3-fluoro-4-[4-(2-methoxyethyl)piperazin-1-yl]phenyl}-N-(1-methylpiperidin-4-yl)-3H-imidazo[4,5-b]pyridin-7-amine], for which the IC50 in the test with PBMC from CLL patients was 310 nM; in test [1], greater than 20000 nM.
